≈ marks a conversion by molar mass, not a printed value.
How the values were obtained:
[1] = test system: Mycobacterium tuberculosis; assay: Antibacterial activity against Mycobacterium tuberculosis H37Rv logarithmic phase forms by spot culture growth inhibition assay; assay type: functional
[2] = Inhibition of Escherichia coli topoisomerase 4-mediated DNA decatenation activity
[3] = Inhibition of Escherichia coli DNA gyrase supercoiling activity
[4] = test system: Escherichia coli; assay: Antibacterial activity against Escherichia coli NCTC 10418 assessed as growth inhibition; assay type: functional
[5] = biological target: DNA gyrase subunit A/DNA gyrase subunit B (Mycobacterium tuberculosis (strain ATCC 25618 / H37Rv), UniProt P9WG45+P9WG47); assay: Inhibition of Mycobacterium tuberculosis H37Rv DNA gyrase supercoiling activity
Chain of DNA gyrase subunit A/DNA gyrase subunit B (P9WG45 whole entry): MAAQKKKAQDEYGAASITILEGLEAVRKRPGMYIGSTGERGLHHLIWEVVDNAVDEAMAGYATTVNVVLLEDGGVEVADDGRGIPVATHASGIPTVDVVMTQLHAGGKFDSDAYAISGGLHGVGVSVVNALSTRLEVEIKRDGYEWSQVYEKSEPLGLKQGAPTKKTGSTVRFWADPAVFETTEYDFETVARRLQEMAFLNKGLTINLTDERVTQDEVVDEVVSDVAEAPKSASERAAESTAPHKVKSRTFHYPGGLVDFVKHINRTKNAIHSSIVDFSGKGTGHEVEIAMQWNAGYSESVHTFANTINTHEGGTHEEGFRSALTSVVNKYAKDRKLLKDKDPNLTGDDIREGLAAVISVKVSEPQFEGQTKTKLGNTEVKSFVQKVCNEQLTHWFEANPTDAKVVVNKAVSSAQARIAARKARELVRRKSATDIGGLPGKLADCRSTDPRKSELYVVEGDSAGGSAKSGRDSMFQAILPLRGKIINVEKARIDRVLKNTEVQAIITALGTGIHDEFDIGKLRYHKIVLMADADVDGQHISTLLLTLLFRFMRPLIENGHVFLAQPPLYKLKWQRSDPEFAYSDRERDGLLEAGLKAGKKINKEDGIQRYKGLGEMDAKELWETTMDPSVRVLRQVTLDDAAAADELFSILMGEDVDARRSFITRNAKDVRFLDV
Chain of DNA gyrase subunit A/DNA gyrase subunit B (P9WG47 whole entry): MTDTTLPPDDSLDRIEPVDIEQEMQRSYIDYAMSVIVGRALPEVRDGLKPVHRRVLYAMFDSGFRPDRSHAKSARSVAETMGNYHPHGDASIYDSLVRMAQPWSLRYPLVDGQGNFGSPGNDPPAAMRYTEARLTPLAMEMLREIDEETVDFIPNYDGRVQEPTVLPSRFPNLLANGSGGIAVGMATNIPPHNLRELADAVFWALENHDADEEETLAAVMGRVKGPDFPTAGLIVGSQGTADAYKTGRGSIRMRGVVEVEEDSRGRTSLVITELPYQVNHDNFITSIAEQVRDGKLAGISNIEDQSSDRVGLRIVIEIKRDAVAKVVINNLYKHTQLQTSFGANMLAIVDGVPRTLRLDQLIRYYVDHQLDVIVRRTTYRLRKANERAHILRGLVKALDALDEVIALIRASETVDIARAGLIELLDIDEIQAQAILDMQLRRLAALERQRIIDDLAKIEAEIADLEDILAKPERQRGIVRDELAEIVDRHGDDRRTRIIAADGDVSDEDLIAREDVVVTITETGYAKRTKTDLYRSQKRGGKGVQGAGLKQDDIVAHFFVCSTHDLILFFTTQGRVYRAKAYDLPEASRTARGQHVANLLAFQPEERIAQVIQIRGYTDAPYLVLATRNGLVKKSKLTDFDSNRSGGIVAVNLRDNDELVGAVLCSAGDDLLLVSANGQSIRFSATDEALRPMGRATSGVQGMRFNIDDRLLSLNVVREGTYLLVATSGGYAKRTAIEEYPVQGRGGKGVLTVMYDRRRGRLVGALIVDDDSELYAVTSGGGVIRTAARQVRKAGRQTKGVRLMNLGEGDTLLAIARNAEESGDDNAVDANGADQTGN

[6] = test system: Clostridioides difficile; assay: Antibacterial activity against Clostridium difficile R20291 assessed as growth inhibition; assay type: functional
[7] = Inhibition of Escherichia coli topoisomerase 4-mediated DNA relaxation activity
[8] = biological target: DNA gyrase (Staphylococcus aureus, UniProt P0A0K8+P20831); assay: Inhibition of Staphylococcus aureus DNA gyrase assessed as reduction in enzyme-catalyzed supercoiling of relaxed circular pBR322 DNA incubated for 30 mins by agarose gel electrophoresis; assay type: protein-complex assay
Chain of DNA gyrase (P0A0K8 whole entry): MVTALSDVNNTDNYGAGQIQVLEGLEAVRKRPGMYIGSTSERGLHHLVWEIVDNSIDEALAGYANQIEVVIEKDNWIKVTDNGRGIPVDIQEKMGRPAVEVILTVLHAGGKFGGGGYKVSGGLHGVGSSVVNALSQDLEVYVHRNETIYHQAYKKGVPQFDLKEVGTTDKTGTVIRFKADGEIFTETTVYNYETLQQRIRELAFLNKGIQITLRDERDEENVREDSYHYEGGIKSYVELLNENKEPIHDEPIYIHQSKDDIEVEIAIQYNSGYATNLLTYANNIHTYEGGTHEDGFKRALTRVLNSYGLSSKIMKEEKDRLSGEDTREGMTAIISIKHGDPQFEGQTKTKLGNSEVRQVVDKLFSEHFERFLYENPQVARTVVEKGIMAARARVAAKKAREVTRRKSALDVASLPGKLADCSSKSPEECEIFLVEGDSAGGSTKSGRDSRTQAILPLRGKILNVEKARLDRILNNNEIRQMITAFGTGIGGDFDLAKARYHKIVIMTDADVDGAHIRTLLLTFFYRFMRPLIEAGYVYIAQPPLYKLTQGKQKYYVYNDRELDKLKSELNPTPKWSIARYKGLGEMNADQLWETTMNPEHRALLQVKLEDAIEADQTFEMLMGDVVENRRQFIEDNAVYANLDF
Chain of DNA gyrase (P20831 whole entry): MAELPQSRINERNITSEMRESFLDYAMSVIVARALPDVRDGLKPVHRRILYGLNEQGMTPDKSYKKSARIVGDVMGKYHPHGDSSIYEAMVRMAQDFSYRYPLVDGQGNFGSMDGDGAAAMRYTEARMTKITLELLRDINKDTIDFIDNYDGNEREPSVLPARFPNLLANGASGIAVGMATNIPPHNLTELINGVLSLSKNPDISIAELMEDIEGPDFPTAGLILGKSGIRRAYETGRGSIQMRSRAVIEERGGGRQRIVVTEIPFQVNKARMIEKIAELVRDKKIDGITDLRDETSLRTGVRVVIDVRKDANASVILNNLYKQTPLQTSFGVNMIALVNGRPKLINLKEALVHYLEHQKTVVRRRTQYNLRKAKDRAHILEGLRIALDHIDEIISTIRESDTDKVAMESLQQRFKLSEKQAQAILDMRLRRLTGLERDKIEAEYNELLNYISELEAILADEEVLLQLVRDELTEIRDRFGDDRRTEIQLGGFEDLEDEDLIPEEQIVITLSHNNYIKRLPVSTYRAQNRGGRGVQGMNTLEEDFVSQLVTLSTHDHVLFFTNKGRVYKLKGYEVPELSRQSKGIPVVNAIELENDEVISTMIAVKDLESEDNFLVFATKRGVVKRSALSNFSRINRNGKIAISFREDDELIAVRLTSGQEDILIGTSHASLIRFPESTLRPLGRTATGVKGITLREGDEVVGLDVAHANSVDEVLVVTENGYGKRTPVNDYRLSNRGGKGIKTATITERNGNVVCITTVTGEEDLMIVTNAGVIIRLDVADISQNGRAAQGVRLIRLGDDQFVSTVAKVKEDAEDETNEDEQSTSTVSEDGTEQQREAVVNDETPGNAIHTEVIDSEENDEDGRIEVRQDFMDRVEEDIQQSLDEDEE

[9] = test system: Clostridioides difficile; assay: Antibacterial activity against Clostridium difficile CD 630 assessed as growth inhibition; assay type: functional
[10] = test system: Staphylococcus aureus; assay: Antibacterial activity against clinical isolates of Staphylococcus aureus EMRSA-16 assessed as growth inhibition after 20 hrs by broth dilution method; assay type: functional; details: EMRSA-16, 20 h
[11] = Inhibition of Staphylococcus aureus topoisomerase 4 assessed as inhibition of decatenation of catenated kinetoplast DNA after 30 mins by agarose gel electrophoresis
[12] = test system: Escherichia coli; assay: Antibacterial activity against Escherichia coli MC 1061 assessed as growth inhibition; assay type: functional
[13] = test system: Staphylococcus aureus; assay: Antibacterial activity against Staphylococcus aureus ATCC 29213 assessed as growth inhibition after 20 hrs by broth dilution method; assay type: functional; details: ATCC 29213, 20 h
[14] = test system: Mycobacterium tuberculosis; assay: Antibacterial activity against Mycobacterium tuberculosis H37Rv hypoxia-induced latency form by spot culture growth inhibition assay; assay type: functional
[15] = Inhibition of Clostridium difficile DNA gyrase supercoiling activity; design: species or system Clostridioides difficile

SMILES | MIC90 [1] [µg/mL] | IC50 [2] [µM] | IC50 [3] [µM] | MIC90 [4] [µg/mL] | IC50 [5] [µM] | MIC90 [6] [µg/mL] | IC50 [7] [µM] | IC50 [8] [µM] | MIC90 [9] [µg/mL] | MIC90 [10] [µg/mL] | IC50 [11] [µM] | MIC90 [12] [µg/mL] | MIC90 [13] [µg/mL] | MIC90 [14] [µg/mL] | IC50 [15] [µM]
COc1cccc(-c2nc3ccc(-c4ccc5nc(-c6cccc(OC)c6)[nH]c5c4)cc3[nH]2)c1 | > 16 | > 50 | > 50 | > 64 | 29 | > 32 | > 50 | 8.8 | > 32 | > 128 | 70.3 | > 64 | > 128 | – | –
Cc1ccc(-c2nc3ccc(-c4ccc5nc(-c6ccc(C)cc6)[nH]c5c4)cc3[nH]2)cc1 | 1 (≈ 2.41 µM) | > 50 | > 50 | > 64 | 2 | 0.06 (≈ 0.145 µM) | > 50 | 5.6 | 0.06 (≈ 0.145 µM) | 0.06 (≈ 0.145 µM) | 50.9 | 0.06 (≈ 0.145 µM) | 0.03 (≈ 0.0724 µM) | 2 (≈ 4.82 µM) | –
Nc1ccc(-c2nc3cc(-c4ccc5[nH]c(-c6ccc(N)cc6)nc5c4)ccc3[nH]2)cc1 | 16 (≈ 38.4 µM) | 8 | > 50 | > 64 | 11.3 | 0.125 (≈ 0.3 µM) | 6.5 | 0.3 | 0.03 (≈ 0.072 µM) | 0.5 (≈ 1.2 µM) | 15.5 | 0.06 (≈ 0.144 µM) | 0.125 (≈ 0.3 µM) | 8 (≈ 19.2 µM) | 8.4
c1cc(-c2nc3cc(-c4ccc5[nH]c(-c6ccncc6)nc5c4)ccc3[nH]2)ccn1 [RIDINILAZOLE] | – | > 50 | > 50 | > 16 | – | 0.125 (≈ 0.322 µM) | – | > 50 | 0.06 (≈ 0.154 µM) | > 128 | > 50 | – | > 128 | – | > 50

Source: ChEMBL document CHEMBL3751811, “The discovery of a novel antibiotic for the treatment of Clostridium difficile infections: a story of an effective academic-industrial partnership” (Medchemcomm, 2015)
